Holding throughout (assay type): cell-based
Test [1] deals with T1, hNaV1.3 (Homo sapiens, UniProt Q9NY46).
T1 construct: host or cells: HEK293
Put plainly: Automated whole-cell patch-clamp (QPatch 16X), hNaV1.3. The settings on record: for IC50: HEK293 cells expressing hNaV1.3 + β1 subunit, QPatch 16X, holding −80 mV, step to 0 mV, peptide incubated 2 min, 0.1% BSA, mean, SEM and n (3-12). In outline: (§1)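 HEK293 cells stably expressing the channel (human subtypes with β1 subunit), held at −80 mV; 2 min peptide pre-incubation, then 20 ms steps to 0 mV after a 200 ms −120 mV conditioning pulse. Extracellular pH 7.3 with 20 mM TEA-Cl, CsF-based pipette solution, 0.1% BSA; IC50 from four-parameter Hill fit.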

Test [2] concerns the target T2, hNaV1.2 (Homo sapiens, UniProt Q99250).
T2 construct: host or cells: HEK293
In words: Automated whole-cell patch-clamp (QPatch 16X), hNaV1.2. The settings on record: for IC50: HEK293 cells expressing hNaV1.2 + β1 subunit, QPatch 16X, holding −80 mV, step to 0 mV, peptide incubated 2 min, 0.1% BSA, mean, SEM and n (2-7); for Loss (reduction) in potency vs rSsp1a at hNaV1.2: relative to wild type rSsp1a. In outline: as §1

Test [3] addresses T3, hNaV1.7 (Homo sapiens, UniProt Q15858).
T3 construct: host or cells: HEK293
Put plainly: Automated whole-cell patch-clamp (QPatch 16X), hNaV1.7. As to conditions: for IC50: HEK293 cells expressing hNaV1.7 + β1 subunit, QPatch 16X, holding −80 mV, step to 0 mV, peptide incubated 2 min, 0.1% BSA, mean, SEM and n (3-9); for Loss (reduction) in potency vs rSsp1a at hNaV1.7: relative to wild type rSsp1a. In outline: as §1
For orientation: Patch clamp records ionic current or voltage across a cell membrane.

Bridge positions count the residues as written; N and C are the ends. Peptide text beside a SMILES is read from it. Bounds are passed on as bounds.

T1 sequence (Q9NY46 whole entry): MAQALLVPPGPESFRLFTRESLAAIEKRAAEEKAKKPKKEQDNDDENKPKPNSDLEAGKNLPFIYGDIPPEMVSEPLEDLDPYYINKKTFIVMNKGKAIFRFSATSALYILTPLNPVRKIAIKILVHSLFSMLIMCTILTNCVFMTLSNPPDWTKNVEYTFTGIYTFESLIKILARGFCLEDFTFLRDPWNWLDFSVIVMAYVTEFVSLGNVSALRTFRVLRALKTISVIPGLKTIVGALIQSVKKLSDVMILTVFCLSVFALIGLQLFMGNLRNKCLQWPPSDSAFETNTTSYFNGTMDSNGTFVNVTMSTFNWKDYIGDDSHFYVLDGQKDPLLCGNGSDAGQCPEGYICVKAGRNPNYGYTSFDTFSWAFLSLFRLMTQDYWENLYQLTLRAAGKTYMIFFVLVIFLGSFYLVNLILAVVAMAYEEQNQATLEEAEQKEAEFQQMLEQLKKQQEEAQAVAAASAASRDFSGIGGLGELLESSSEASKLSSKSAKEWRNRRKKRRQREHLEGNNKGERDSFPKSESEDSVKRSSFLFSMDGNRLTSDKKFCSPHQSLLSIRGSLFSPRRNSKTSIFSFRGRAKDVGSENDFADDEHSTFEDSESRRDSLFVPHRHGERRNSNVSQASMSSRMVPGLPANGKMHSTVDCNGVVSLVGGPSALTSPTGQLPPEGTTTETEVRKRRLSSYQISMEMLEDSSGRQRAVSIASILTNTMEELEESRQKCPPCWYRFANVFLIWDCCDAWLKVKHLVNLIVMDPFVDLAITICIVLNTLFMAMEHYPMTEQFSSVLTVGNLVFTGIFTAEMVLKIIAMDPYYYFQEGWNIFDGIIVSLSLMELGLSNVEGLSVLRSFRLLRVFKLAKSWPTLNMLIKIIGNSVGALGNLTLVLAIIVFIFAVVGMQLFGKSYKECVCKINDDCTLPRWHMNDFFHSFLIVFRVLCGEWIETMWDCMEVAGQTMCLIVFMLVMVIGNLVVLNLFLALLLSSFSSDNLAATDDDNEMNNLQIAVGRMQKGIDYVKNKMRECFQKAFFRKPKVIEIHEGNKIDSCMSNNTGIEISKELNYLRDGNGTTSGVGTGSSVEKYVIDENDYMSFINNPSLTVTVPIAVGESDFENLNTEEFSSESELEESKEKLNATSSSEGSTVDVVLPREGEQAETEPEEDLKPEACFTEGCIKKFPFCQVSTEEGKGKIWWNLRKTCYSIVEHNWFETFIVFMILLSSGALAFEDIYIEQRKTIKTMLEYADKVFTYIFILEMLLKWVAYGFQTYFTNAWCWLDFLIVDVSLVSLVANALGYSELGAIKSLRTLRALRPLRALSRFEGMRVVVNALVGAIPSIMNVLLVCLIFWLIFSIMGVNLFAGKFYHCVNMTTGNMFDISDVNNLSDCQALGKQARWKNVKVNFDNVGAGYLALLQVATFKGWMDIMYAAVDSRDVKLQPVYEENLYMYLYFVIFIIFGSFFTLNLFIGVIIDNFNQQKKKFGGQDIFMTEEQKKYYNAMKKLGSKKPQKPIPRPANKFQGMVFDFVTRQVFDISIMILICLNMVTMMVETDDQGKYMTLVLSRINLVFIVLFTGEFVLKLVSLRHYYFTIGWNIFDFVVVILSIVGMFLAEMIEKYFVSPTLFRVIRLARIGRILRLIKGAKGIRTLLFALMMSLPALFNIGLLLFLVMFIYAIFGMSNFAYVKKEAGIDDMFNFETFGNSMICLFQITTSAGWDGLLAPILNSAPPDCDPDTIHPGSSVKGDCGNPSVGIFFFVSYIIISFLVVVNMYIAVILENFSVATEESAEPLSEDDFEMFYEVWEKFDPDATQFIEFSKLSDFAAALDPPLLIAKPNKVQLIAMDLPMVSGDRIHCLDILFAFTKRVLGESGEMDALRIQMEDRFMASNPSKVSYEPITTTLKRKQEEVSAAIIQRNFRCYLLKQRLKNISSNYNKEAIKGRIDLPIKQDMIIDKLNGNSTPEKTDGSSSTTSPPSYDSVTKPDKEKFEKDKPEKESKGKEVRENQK
T1 sequence (Q07699 19-218, further chain): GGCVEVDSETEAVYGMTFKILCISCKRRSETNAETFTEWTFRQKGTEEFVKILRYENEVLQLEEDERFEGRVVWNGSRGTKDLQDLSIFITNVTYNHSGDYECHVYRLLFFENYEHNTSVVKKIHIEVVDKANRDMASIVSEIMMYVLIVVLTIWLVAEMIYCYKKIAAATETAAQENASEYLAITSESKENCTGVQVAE
T3 sequence (Q15858 whole entry): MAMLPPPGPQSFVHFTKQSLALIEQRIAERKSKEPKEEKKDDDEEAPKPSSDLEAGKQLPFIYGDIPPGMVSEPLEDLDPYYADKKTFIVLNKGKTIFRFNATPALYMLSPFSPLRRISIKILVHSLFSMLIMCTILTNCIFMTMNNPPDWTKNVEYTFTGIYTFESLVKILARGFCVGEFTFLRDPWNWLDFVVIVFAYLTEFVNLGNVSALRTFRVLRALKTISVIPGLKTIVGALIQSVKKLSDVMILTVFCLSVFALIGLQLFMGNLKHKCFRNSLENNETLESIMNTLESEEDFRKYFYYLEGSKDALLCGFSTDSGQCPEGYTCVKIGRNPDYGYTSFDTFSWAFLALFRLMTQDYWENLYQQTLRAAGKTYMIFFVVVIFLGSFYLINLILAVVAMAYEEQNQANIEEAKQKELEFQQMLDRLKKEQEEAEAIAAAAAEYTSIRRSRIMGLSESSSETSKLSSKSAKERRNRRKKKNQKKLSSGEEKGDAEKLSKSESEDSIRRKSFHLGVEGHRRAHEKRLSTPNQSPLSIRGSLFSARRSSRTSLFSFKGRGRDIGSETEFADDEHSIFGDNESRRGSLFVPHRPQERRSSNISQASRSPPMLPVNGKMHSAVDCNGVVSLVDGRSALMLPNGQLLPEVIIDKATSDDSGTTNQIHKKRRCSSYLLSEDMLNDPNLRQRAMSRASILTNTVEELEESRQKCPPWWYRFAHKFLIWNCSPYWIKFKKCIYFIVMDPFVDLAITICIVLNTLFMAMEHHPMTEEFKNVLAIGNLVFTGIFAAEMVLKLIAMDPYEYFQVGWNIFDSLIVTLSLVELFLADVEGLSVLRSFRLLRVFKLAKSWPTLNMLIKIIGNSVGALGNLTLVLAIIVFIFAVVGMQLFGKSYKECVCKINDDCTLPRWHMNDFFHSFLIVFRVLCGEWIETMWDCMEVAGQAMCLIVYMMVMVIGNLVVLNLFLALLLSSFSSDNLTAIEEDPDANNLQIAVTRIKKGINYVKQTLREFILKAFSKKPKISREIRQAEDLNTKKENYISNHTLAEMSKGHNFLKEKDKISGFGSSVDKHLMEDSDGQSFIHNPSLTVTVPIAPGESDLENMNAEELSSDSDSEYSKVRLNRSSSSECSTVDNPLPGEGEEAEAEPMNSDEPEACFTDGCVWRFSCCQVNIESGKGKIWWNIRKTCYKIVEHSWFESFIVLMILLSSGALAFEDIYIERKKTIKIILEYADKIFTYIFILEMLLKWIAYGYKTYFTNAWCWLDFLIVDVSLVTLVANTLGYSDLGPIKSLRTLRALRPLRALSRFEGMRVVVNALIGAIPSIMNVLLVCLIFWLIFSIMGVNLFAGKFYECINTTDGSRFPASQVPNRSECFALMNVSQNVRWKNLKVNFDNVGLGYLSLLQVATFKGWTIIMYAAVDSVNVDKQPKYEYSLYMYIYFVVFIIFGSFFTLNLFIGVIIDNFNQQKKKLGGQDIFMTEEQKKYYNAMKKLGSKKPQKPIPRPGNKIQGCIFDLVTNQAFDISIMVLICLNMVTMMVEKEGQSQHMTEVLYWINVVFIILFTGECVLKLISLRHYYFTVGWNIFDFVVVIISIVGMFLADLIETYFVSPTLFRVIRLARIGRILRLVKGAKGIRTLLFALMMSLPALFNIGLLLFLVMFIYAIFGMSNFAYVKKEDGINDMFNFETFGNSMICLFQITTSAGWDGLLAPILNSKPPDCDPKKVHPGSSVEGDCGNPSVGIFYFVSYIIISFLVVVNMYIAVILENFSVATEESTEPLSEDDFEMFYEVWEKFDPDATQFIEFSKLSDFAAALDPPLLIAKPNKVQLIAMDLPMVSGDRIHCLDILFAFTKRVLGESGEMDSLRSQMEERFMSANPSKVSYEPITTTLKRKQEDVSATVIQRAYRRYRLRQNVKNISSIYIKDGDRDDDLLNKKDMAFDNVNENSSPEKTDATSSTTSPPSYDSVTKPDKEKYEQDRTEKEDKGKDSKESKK
T3 sequence (Q07699 19-218, further chain): as the sequence (Q07699 19-218, further chain) above

Regarding `CC(C)C[C@H](NC(=O)[C@H](CC(=O)O)NC(=O)[C@H](Cc1ccc(O)cc1)NC(=O)[C@H](CCCNC(=N)N)NC(=O)[C@@H]1CSSC[C@@H]2NC(=O)[C@H](CCCCN)NC(=O)[C@H](CC(=O)O)NC(=O)[C@H](CC(N)=O)NC(=O)[C@H](CC(N)=O)NC(=O)[C@@H]3CCCN3C(=O)[C@H](CC(=O)O)NC(=O)[C@@H]3CSSC[C@H](NC(=O)[C@H](C(C)C)NC(=O)[C@H](Cc4ccc(O)cc4)NC(=O)CNC(=O)[C@H](CCC(=O)O)NC(=O)[C@H](CSSC[C@H](NC(=O)[C@H](CC(=O)O)NC(=O)CN)C(=O)N[C@@H](CC(C)C)C(=O)NCC(=O)N[C@@H](Cc4c[nH]c5ccccc45)C(=O)N[C@@H](Cc4ccccc4)C(=O)N[C@@H](CO)C(=O)NCC(=O)N3)NC2=O)C(=O)N[C@@H](Cc2c[nH]cn2)C(=O)N[C@@H](Cc2c[nH]c3ccccc23)C(=O)N[C@@H](CCCCN)C(=O)N[C@@H](Cc2ccc(O)cc2)C(=O)N[C@@H](CCCNC(=N)N)C(=O)N[C@@H](Cc2c[nH]c3ccccc23)C(=O)N1)C(=O)O` [N14D/P27R] (H-GDCLGWFSGCDPNNDKCCEGYVCHWKYRWCRYDL-OH; disulfide 3-18, 10-23, 17-30), in test [1] (3 µM peptide, QPatch, read-out: Inhibition (block) of hNaV1.3 at 3 µM), the inhibition – broadly, how much of the control response was suppressed – at 3 µM was roughly 40%. Besides, the IC50 – broadly, the midpoint of a concentration-inhibition curve – was greater than 3 µM in test [1], 0.087 µM in test [2] and 0.057 µM in test [3].
On to `CC(C)C[C@@H]1NC(=O)[C@@H](NC(=O)[C@H](CC(=O)O)NC(=O)CN)CSSC[C@@H]2NC(=O)[C@@H]3CSSC[C@@H](C(=O)N[C@@H](CCCNC(=N)N)C(=O)N[C@@H](Cc4ccc(O)cc4)C(=O)N[C@@H](CC(=O)O)C(=O)N[C@@H](C)C(=O)O)NC(=O)[C@H](Cc4c[nH]c5ccccc45)NC(=O)[C@@H]4CCCN4C(=O)[C@H](Cc4ccc(O)cc4)NC(=O)[C@H](CCCCN)NC(=O)[C@H](Cc4c[nH]c5ccccc45)NC(=O)[C@H](Cc4c[nH]cn4)NC(=O)[C@H](CSSC[C@H](NC(=O)CNC(=O)[C@H](CO)NC(=O)[C@H](Cc4ccccc4)NC(=O)[C@H](Cc4c[nH]c5ccccc45)NC(=O)CNC1=O)C(=O)N[C@@H](CC(=O)O)C(=O)N1CCC[C@H]1C(=O)N[C@@H](CC(N)=O)C(=O)N[C@@H](CC(N)=O)C(=O)N[C@@H](CC(N)=O)C(=O)N[C@@H](CCCCN)C(=O)N3)NC(=O)[C@H](C(C)C)NC(=O)[C@H](Cc1ccc(O)cc1)NC(=O)CNC(=O)[C@H](CCC(=O)O)NC2=O` [L33A], for which the IC50 was greater than 3 µM in test [1], 0.396 µM in test [2] and 0.448 µM in test [3].
In the case of `CC(C)C[C@H](NC(=O)[C@H](CC(=O)O)NC(=O)[C@H](Cc1ccc(O)cc1)NC(=O)[C@H](CCCNC(=N)N)NC(=O)[C@@H]1CSSC[C@@H]2NC(=O)[C@H](CCCCN)NC(=O)[C@H](CC(N)=O)NC(=O)[C@H](CC(N)=O)NC(=O)[C@H](CC(N)=O)NC(=O)[C@@H]3CCCN3C(=O)[C@H](CC(=O)O)NC(=O)[C@@H]3CSSC[C@H](NC(=O)[C@H](C(C)C)NC(=O)[C@H](Cc4ccc(O)cc4)NC(=O)CNC(=O)[C@H](CCC(=O)O)NC(=O)[C@H](CSSC[C@H](NC(=O)[C@H](CC(=O)O)NC(=O)CN)C(=O)N[C@@H](CC(C)C)C(=O)NCC(=O)N[C@@H](Cc4c[nH]c5ccccc45)C(=O)N[C@@H](Cc4ccccc4)C(=O)N[C@@H](CO)C(=O)NCC(=O)N3)NC2=O)C(=O)N[C@@H](Cc2c[nH]cn2)C(=O)N[C@@H](Cc2c[nH]c3ccccc23)C(=O)N[C@@H](CCCCN)C(=O)N[C@@H](Cc2ccc(O)cc2)C(=O)N2CCC[C@H]2C(=O)N[C@@H](C)C(=O)N1)C(=O)O` [W28A] (H-GDCLGWFSGCDPNNNKCCEGYVCHWKYPACRYDL-OH; disulfide 3-18, 10-23, 17-30 (inferred); N-terminus and C-terminus assumed), the IC50 in test [1] was greater than 3 µM. Besides, in test [2], the 50% inhibitory concentration (IC50) was greater than 3 µM and the “Loss (reduction) in potency vs rSsp1a at hNaV1.2” value (shortened to “Loss (reduction) … at hNaV1.2”) is no less than 10 fold. Also, in test [3], the IC50 was greater than 3 µM and the “Loss (reduction) in potency vs rSsp1a at hNaV1.7” value (“Loss (reduction) … at hNaV1.7” for short) is on record as no less than 10 fold.
For `CC(C)C[C@H](NC(=O)[C@H](CC(=O)O)NC(=O)[C@H](Cc1ccc(O)cc1)NC(=O)[C@H](CCCNC(=N)N)NC(=O)[C@@H]1CSSC[C@@H]2NC(=O)[C@H](CCCCN)NC(=O)[C@H](CC(N)=O)NC(=O)[C@H](CC(N)=O)NC(=O)[C@H](CC(N)=O)NC(=O)[C@@H]3CCCN3C(=O)[C@H](CC(=O)O)NC(=O)[C@@H]3CSSC[C@H](NC(=O)[C@H](C(C)C)NC(=O)[C@H](Cc4ccc(O)cc4)NC(=O)CNC(=O)[C@H](CCC(=O)O)NC(=O)[C@H](CSSC[C@H](NC(=O)[C@H](CC(=O)O)NC(=O)CN)C(=O)N[C@@H](CC(C)C)C(=O)NCC(=O)N[C@@H](Cc4c[nH]c5ccccc45)C(=O)N[C@@H](Cc4ccccc4)C(=O)N[C@@H](CO)C(=O)NCC(=O)N3)NC2=O)C(=O)N[C@@H](Cc2c[nH]cn2)C(=O)N[C@@H](Cc2c[nH]c3ccccc23)C(=O)N[C@@H](CCCCN)C(=O)N[C@@H](C)C(=O)N2CCC[C@H]2C(=O)N[C@@H](Cc2c[nH]c3ccccc23)C(=O)N1)C(=O)O` [Y26A] (H-GDCLGWFSGCDPNNNKCCEGYVCHWKAPWCRYDL-OH; disulfide 3-18, 10-23, 17-30 (inferred); N-terminus and C-terminus assumed), in test [1], the IC50 was greater than 1 µM. For the same compound, in test [2], the IC50 is greater than 1 µM and the “Loss (reduction) … at hNaV1.2” value is no less than 10 fold. Besides, in test [3], the IC50 is greater than 1 µM and the “Loss (reduction) … at hNaV1.7” value is no less than 10 fold.
`CC(C)C[C@H](NC(=O)[C@H](CC(=O)O)NC(=O)[C@H](Cc1ccc(O)cc1)NC(=O)[C@H](CCCNC(=N)N)NC(=O)[C@@H]1CSSC[C@@H]2NC(=O)[C@H](CCCCN)NC(=O)[C@H](CC(N)=O)NC(=O)[C@H](CC(N)=O)NC(=O)[C@H](CC(N)=O)NC(=O)[C@@H]3CCCN3C(=O)[C@H](CC(=O)O)NC(=O)[C@@H]3CSSC[C@H](NC(=O)[C@H](C(C)C)NC(=O)[C@H](Cc4ccc(O)cc4)NC(=O)CNC(=O)[C@H](CCC(=O)O)NC(=O)[C@H](CSSC[C@H](NC(=O)[C@H](CC(=O)O)NC(=O)CN)C(=O)N[C@@H](CC(C)C)C(=O)NCC(=O)N[C@@H](C)C(=O)N[C@@H](Cc4ccccc4)C(=O)N[C@@H](CO)C(=O)NCC(=O)N3)NC2=O)C(=O)N[C@@H](Cc2c[nH]cn2)C(=O)N[C@@H](Cc2c[nH]c3ccccc23)C(=O)N[C@@H](CCCCN)C(=O)N[C@@H](Cc2ccc(O)cc2)C(=O)N2CCC[C@H]2C(=O)N[C@@H](Cc2c[nH]c3ccccc23)C(=O)N1)C(=O)O` [W5A] (H-GDCLGAFSGCDPNNNKCCEGYVCHWKYPWCRYDL-OH; disulfide 3-18, 10-23, 17-30 (inferred); N-terminus and C-terminus assumed): in test [1], the IC50 was greater than 1 µM. In test [2], the half-maximal inhibitory concentration (IC50) was greater than 1 µM and the “Loss (reduction) … at hNaV1.2” value was no less than 10 fold. For the same compound, in test [3], the IC50 was greater than 1 µM and the “Loss (reduction) … at hNaV1.7” value is no less than 10 fold.
For the compound `CC(C)C[C@H](NC(=O)[C@H](CC(=O)O)NC(=O)[C@H](Cc1ccc(O)cc1)NC(=O)[C@H](CCCNC(=N)N)NC(=O)[C@@H]1CSSC[C@@H]2NC(=O)[C@H](CCCCN)NC(=O)[C@H](CC(N)=O)NC(=O)[C@H](CC(N)=O)NC(=O)[C@H](CC(N)=O)NC(=O)[C@@H]3CCCN3C(=O)[C@H](CC(=O)O)NC(=O)[C@@H]3CSSC[C@H](NC(=O)[C@H](C(C)C)NC(=O)[C@H](Cc4ccc(O)cc4)NC(=O)CNC(=O)[C@H](CCC(=O)O)NC(=O)[C@H](CSSC[C@H](NC(=O)[C@H](CC(=O)O)NC(=O)CN)C(=O)N[C@@H](CC(C)C)C(=O)N[C@@H](CCCNC(=N)N)C(=O)N[C@@H](Cc4c[nH]c5ccccc45)C(=O)N[C@@H](Cc4ccccc4)C(=O)N[C@@H](CO)C(=O)NCC(=O)N3)NC2=O)C(=O)N[C@@H](Cc2c[nH]cn2)C(=O)N[C@@H](Cc2c[nH]c3ccccc23)C(=O)N[C@@H](CCCCN)C(=O)N[C@@H](Cc2ccc(O)cc2)C(=O)N2CCC[C@H]2C(=O)N[C@@H](Cc2c[nH]c3ccccc23)C(=O)N1)C(=O)O` [G4R], the values for the IC50 in test [1], in test [2] and in test [3] were 0.409 µM, 0.193 µM and 0.201 µM, respectively.
For `CC(C)C[C@H](NC(=O)[C@H](CC(=O)O)NC(=O)[C@H](Cc1ccc(O)cc1)NC(=O)[C@H](CCCNC(=N)N)NC(=O)[C@@H]1CSSC[C@@H]2NC(=O)[C@H](CCCCN)NC(=O)[C@H](CC(N)=O)NC(=O)[C@H](CC(N)=O)NC(=O)[C@H](CC(N)=O)NC(=O)[C@@H]3CCCN3C(=O)[C@H](CC(=O)O)NC(=O)[C@@H]3CSSC[C@H](NC(=O)[C@H](C(C)C)NC(=O)[C@H](Cc4ccc(O)cc4)NC(=O)CNC(=O)[C@H](CCC(=O)O)NC(=O)[C@H](CSSC[C@H](NC(=O)[C@H](CC(=O)O)NC(=O)CN)C(=O)N[C@@H](CC(C)C)C(=O)NCC(=O)N[C@@H](Cc4c[nH]c5ccccc45)C(=O)N[C@@H](Cc4ccccc4)C(=O)N[C@@H](CO)C(=O)NCC(=O)N3)NC2=O)C(=O)N[C@@H](Cc2c[nH]cn2)C(=O)N[C@@H](C)C(=O)N[C@@H](CCCCN)C(=O)N[C@@H](Cc2ccc(O)cc2)C(=O)N2CCC[C@H]2C(=O)N[C@@H](Cc2c[nH]c3ccccc23)C(=O)N1)C(=O)O` [W24A] (H-GDCLGWFSGCDPNNNKCCEGYVCHAKYPWCRYDL-OH; disulfide 3-18, 10-23, 17-30 (inferred); N-terminus and C-terminus assumed), the IC50 in test [1] was greater than 1 µM. Moreover, in test [2], the IC50 was greater than 1 µM and the “Loss (reduction) … at hNaV1.2” value is no less than 10 fold. Further, in test [3], the IC50 is greater than 1 µM and the “Loss (reduction) … at hNaV1.7” value is no less than 10 fold.

Values taken from paper PMC10682951, “Structure-function and rational design of a spider toxin Ssp1a at human voltage-gated sodium channel subtypes” (Frontiers in Pharmacology, 2023).
